From article PMC2854178 (Biochemistry, 2010)

Target: AFUA_6g12080 (Orf12080) module 1 C*AT (Aspergillus fumigatus, UniProt Q4WLW5)
Type: biochemical
Conditions: ATP, 10 mM MgCl2, pH 7.4, 25 °C, 5 μM enzyme (apo); off-pathway acyl-AMP release

Sequence of AFUA_6g12080 (Orf12080) module 1 C*AT (Q4WLW5 1-885): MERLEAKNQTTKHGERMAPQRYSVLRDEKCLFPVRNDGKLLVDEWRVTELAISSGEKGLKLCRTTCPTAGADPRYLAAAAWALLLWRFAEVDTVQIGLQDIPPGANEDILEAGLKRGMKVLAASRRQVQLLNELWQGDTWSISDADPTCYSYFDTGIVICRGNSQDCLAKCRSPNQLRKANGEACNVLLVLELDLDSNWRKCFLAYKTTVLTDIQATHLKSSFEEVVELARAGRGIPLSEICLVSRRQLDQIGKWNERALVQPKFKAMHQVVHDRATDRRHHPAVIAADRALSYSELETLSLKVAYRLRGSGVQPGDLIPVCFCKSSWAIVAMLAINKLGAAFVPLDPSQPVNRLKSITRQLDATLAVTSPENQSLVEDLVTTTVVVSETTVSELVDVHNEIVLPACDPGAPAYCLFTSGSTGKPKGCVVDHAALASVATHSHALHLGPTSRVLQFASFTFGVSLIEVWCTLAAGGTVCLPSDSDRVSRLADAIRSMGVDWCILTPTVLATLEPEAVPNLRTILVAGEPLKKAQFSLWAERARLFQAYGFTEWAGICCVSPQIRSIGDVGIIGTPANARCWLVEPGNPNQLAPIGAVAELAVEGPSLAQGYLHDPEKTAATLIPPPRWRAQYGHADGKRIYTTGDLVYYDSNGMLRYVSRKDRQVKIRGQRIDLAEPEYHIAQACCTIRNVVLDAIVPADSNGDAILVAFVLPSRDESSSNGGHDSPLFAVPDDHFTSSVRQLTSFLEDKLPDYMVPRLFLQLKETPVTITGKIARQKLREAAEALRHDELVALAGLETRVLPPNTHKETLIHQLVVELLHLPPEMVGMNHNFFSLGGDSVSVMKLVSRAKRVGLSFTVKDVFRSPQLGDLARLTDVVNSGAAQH

In the case of `Nc1ccccc1C(=O)O` [anthranilic acid, 2-aminobenzoic acid], the Km is reported as 18 µM.
